Measurements: patent US9963433B2, “Anticancer drugs including the chemical structures of an androgen receptor ligand and a histone deacetylase inhibitor” (Wayne State University, priority 2016, dated 2018)

Key:
[1] = system: HDACs from Hela cell nuclear extract; type: biochemical; details: HeLa cell nuclear extract; tested at 10 μM and 25 μM; FIG. 2B
Protocol: (§1) FIGS. 2A-2F show measurement of intrinsic and in situ HDACi activities. […] IC50 values were calculated from nonlinear regression plots using GraphPad Prism5 software. […] Recombinant HDAC6 was incubated with each drug at the indicated concentrations. IC50 values were calculated from nonlinear regression plots using GraphPad Prism5 software.
(§2) HDAC activity assay. In vitro HDAC inhibition was measured by using the HDAC fluorimetric assay/drug discovery Kit (Enzo Life Sciences, BML-AK500) and the HDAC6 fluorometric drug discovery kit (Enzo Life Sciences, BML-AK516) following the manufacturer's protocols and instructions. IC50 values were calculated from nonlinear […] plots using GraphPad Prism5 software.
(§3) HDAC1 and HDAC2 are enriched in nuclear extracts whereas HDAC6 is a cytosolic enzyme that is the principal modulator of the acetylation status of Hsp90. […] Again, TSA served as the positive control in FIG. 2D.

[2] = target: T1, human recombinant HDAC6 (Homo sapiens, UniProt Q9UBN7); test: HDAC6 fluorometric assay, recombinant enzyme; type: biochemical; details: tested at 10 μM and 25 μM; FIG. 2D
T1 construct: purchased Enzo Life Sciences BML-AK516
T1 sequence (Q9UBN7 1-1215): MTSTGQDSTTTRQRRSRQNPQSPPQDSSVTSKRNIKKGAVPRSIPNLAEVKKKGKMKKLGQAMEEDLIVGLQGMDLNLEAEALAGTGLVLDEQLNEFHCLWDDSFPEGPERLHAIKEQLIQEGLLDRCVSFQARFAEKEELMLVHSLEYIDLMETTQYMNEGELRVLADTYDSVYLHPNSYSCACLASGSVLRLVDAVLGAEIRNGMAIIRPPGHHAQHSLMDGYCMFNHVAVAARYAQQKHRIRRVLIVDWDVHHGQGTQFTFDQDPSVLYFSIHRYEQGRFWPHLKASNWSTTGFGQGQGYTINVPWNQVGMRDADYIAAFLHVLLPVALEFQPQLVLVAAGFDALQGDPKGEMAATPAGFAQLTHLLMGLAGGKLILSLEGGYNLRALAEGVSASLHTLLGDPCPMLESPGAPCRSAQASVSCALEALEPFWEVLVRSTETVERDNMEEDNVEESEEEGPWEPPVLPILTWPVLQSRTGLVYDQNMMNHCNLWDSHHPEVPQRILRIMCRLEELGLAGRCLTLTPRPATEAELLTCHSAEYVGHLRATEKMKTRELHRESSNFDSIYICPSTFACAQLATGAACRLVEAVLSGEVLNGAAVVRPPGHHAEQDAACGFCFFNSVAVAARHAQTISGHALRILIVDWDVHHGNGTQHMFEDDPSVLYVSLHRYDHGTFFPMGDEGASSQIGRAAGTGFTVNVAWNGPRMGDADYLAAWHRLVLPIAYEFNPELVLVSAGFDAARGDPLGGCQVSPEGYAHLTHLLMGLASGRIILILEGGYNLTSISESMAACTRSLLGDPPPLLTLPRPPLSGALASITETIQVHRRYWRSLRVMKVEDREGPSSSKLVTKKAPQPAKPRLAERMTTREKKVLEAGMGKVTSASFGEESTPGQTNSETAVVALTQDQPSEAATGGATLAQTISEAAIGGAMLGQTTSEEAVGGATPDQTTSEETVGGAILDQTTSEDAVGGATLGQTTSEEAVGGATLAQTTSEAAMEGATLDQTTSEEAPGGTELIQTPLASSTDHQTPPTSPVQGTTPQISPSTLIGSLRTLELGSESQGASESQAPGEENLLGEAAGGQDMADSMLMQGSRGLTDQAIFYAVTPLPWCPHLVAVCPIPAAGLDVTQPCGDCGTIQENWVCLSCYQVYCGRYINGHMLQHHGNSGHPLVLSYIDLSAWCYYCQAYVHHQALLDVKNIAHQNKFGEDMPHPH
Protocol: as §1, §2, §3

[3] = system: KLK3 mRNA (AR target gene) in C4-2 cells; test: Inhibition of R1881 activation of KLK3 mRNA in C4-2 cells; type: cell-based; details: hormone depleted 96 h, R1881 1 nM, compound 1-10 μM, 48 h, FIG. 3A
Protocol: (§4) Cell Culture and Reagents. LNCaP and 22Rv1 cell lines were from American Type Culture Collection (Manassas, Va.). C4-2 cells were kindly provided by Dr. Edwin Sanchez (University of Toledo). […] R1881 was kindly provided by Dr. Stephan Patrick (Karmanos Cancer Institute). All experiments were conducted using phenol-red free growth media.
(§5) RNA isolation, Reverse Transcription, and Real Time PCR. Total RNA was isolated from cells using the RNeasy Mini Kit (Qiagen). Reverse transcription PCR was then performed using 500 ng of total RNA with random primers and using the high-capacity complementary DNA Archive kit (Applied Biosystems). The complementary DNA from this reaction was measured using quantitative real time PCR using the StepONE Plus Real Time PCR system (Life Technologies Corporation, Carlsbad, Calif.). All reactions were performed in triplicate and normalized to glyceraldehyde-3-phosphate-dehydrogenase values in the same samples.

[4] = system: TMPRSS2 mRNA (AR target gene) in C4-2 cells; test: Inhibition of R1881 activation of TMPRSS2 mRNA in C4-2 cells; type: cell-based; details: hormone depleted 96 h, R1881 1 nM, compound 1-10 μM, 48 h, FIG. 3B
Protocol: as §4, §5

[5] = system: AR chromatin association at KLK3 ARE enhancer elements; test: ChIP of AR at KLK3 enhancer in C4-2 cells; details: compound 10 μM, R1881 1 nM or 10 nM, 2 h, FIG. 3C
Protocol: (3C) C4-2 cells plated in hormone-depleted medium were treated with either vehicle, R1881, or the indicated compound for 2 h. Cells were harvested and subjected to ChIP using AR antibody. Taqman probes targeting ARE enhancer elements associated with the KLK3 gene were used to quantify the immunoprecipitated chromatin.
Chromatin Immunoprecipitation (ChIP). […] The ChIP signals were measured by quantitative real time PCR analysis of the immunoprecipitated products.
As a target site for the ChIP assay, the well-established AR binding enhancer elements located 4 kb upstream of the transcription initiation site of the KLK3 gene was chosen.

SMILES	inhibition of nuclear HDAC activity [1]	inhibitory activity against HDAC6 [2]	inhibition of activation of KLK3 by R1881 [3]	inhibition of activation of TMPRSS2 by R1881 [4]	chromatin association of AR (ChIP signal) [5]
COC(=O)CCCCCCNC(=O)c1ccc(N2C(=S)N(c3ccc(C#N)c(C(F)(F)F)c3)C(=O)C2(C)C)cc1F [Compound 3-52, Methyl-7-(4-(3-(4-cyano-3-(trifluoromethyl)phenyl)-5,5-dimethyl-4-oxo-2-thioxoimidazolidin-1-yl)-2-fluorobenzamido)heptanoate]	did not inhibit nuclear HDAC activity even up to a concentration of 25 μM	did not show significant inhibitory activity	comparable to Enz	comparable to Enz	
C[C@]1(O)CC[C@H]2[C@@H]3CCC4=CC(=O)CCC4=C3C=C[C@@]21C [androgen, R1881]					strongly stimulated chromatin association of AR
